In PMC12395388 (Regulatory toxicology and pharmacology : RTP, 2024):

Experiments:
[1] = Solubility in Ames test vehicles; assay type: physicochemical
yeast = settings: ref Larimer et al., 1980, cited from earlier work
[2] = published by FDA as of September 4, 2024, ref FDA, 2024a; cited from earlier work
Ames tester strains = settings: cited from earlier work
Drosophila = settings: cited from earlier work
E. coli WU3610 = settings: ref Elespuru and Lijinsky, 1976; cited from earlier work
[3] = system: Salmonella typhimurium tester strains TA98, TA100, TA1535, and TA1537, and Escherichia coli strain WP2 uvrA (pKM101); test: Preincubation Ames test, five tester strains; assay type: cell-based; settings: G:C target: TA98, TA100, TA1535, TA1537; A:T target: WP2 uvrA (pKM101)
[4] = system: Salmonella typhimurium TA100; test: Preincubation Ames test, strain TA100; assay type: cell-based; settings: for S9-mediated mutagenicity in TA100: with S9 activation
[5] = system: Salmonella typhimurium TA1535; test: Preincubation Ames test, strain TA1535; assay type: cell-based; settings: for Direct-acting mutagenicity in TA1535: no exogenous metabolic activation (no S9); for S9-mediated mutagenicity in TA1535: with S9 activation
[6] = system: CHO, V79, L5178Y/Tk+/−, TK6, HepaRG cells; settings: cited from earlier work
[7] = PC1 most potent, PC5 least potent; ref FDA, 2024a; cited from earlier work
[8] = listed as 1-Methyl-4-nitrosopiperizine
[9] = listed as 1-methyl-4-nitrosopiperizine

In the case of `O=NN1CCN(c2cc3c(cc2F)c(=O)c(C(=O)O)cn3C2CC2)CC1` [NDSRI-24, 1-Cyclopropyl-6-fluoro-7-(4-nitrosopiperazin-1-yl)-4-oxoquinoline-3-carboxylic acid], the “Solubility in test vehicles” value [1] is reported as “poorly soluble in all vehicles”.

For `CN1CCN(N=O)CC1` [SM-4, 1-Methyl-4-nitrosopiperazine], the “Direct-acting mutagenicity in yeast” value (yeast; only summary results provided) is listed as “does not appear to be a direct-acting mutagen”, the Mutagenicity/genotoxicity in yeast (yeast; Mehta and Von Borstel, 1984) is listed as “Mutagenic in yeast, Drosophila, V79 cells, host-mediated assay” and the AI limit [2] is listed as 400 ng/day. The “Ames response (all S9-mediated except where noted)” value (Ames tester strains; published/posted results, ref representative Ames references of Table 2) was “Positive”, the “Ames response with human liver S9” value (Ames tester strains; ref Sabadie et al., 1980) was “Ames positive with human liver S9” and the “Mutagenicity in Drosophila” value (Drosophila; ref Nix et al., 1980) was “Mutagenic in yeast, Drosophila, V79 cells, host-mediated assay”. The “Recombination in Drosophila” value (Drosophila; ref Vogel and Nivard, 1993) was “recombinogen in Drosophila”, the “Mutagenicity in E. coli WU3610” value (E. coli WU3610) was “not mutagenic in E. coli WU3610” and the “Specificity for G:C or A:T target tester strains” value [3] was “positive only in G:C detecting strains”. The “Effectiveness of time of preincubation for most effective S9” value ([4]; strain TA100, 30 vs 60 min) was 60min = 30min, the “S9-mediated mutagenicity in TA100” value [4, 8] was “strong S9-mediated mutagen” and the “S9-mediated mutagenicity in TA100” value [4, 9] was “strongly positive”. For the same compound, the “Direct-acting mutagenicity in TA1535” value [5] was “a Equivocal direct-acting mutagen in TA1535”, the “Direct-acting mutagenicity in TA1535” value [5, 8] was “weakly positive direct-acting mutagen in two of four assays” and the “Direct-acting mutagenicity in TA1535” value [5, 9] was “classified as ‘equivocal’ as a direct-acting mutagen”. For the same compound, the “Effectiveness of time of preincubation for most effective S9” value ([5]; strain TA1535, 30 vs 60 min) was 60min = 30min, the “S9-mediated mutagenicity in TA1535” value [5, 8] was “strong S9-mediated mutagen” and the “S9-mediated mutagenicity in TA1535” value [5, 9] was “strongly positive”. For the same compound, the “Mutagenicity/genotoxicity in mammalian cells in vitro” value ([6]; cell lines as named in the value, ref as given in Table 2 Notes) was “Mutagenic in yeast, Drosophila, V79 cells, host-mediated assay”, the “Direct-acting mutagenicity in V79 cells” value ([6]; only summary results provided, ref Kuroki et al., 1977) was “does not appear to be a direct-acting mutagen” and the “CPCA Potency Category (PC)” value [7] was “PC3”.
